# From paper PMC12322948 (The Journal of Organic Chemistry, 2025)
# Where two headings read alike, the source gives them in different places.
# Molecular target: T1, ACE2 (Homo sapiens, UniProt Q9BYF1)
# T1 construct: purchased Abcam/BioVision ab273373
# Assay: ACE2 inhibition assay (Abcam ACE2 Inhibitor Screening Kit, fluorogenic MCA peptide substrate)
# Assay type: biochemical
# Conditions: for pIC50 exp-MLN – pIC50 exp: difference between experimental pIC50 of MLN-4760 and of the compound
# Experimental: Having validated our radiosynthetic approach to (S,S)-[^18F]1 and with various fluorinated MLN-4760 analogues in hand, we next looked to evaluate the inhibitory activity of the analogues using a commercially available ACE2 inhibition assay kit (Table ) (Figure ). […] Consequently, the pIC50 values of the tested compounds were evaluated relative to our experimentally measured value for MLN-4760 in order to identify lead candidates for radiolabeling. […] The difference between the in vitro pIC^exp 50 for MLN-4760 and the pIC^exp 50 values of (S,S)-1–(S,S)-4 aligned with the difference in the in silico predicted pIC50 (pIC^pr 50) of MLN-4760 and pIC^pr 50 values of (S,S)-1–(S,S)-4. Specifically, these pIC50 differences for all 3,5-disubstituted benzyl analogues (S,S)-2, (S,S)-3, and (S,S)-4 were smaller than for the para-substituted benzyl analogue (S,S)-1, providing support for the pIC^pr 50 values (Table ). Consequently, compounds (S,S)-2, (S,S)-3 and (S,S)-4, with pIC50 values in the same range as MLN-4760, emerge as priority targets for future ACE2 PET radioligand development.
# The assay for the inhibition of ACE2 was conducted using a commercially available ACE2 Inhibitor Screening Kit, purchased from Abcam (ACE2 Inhibitor Screening Kit, ab273373; Abcam/BioVision), in 96-well microplates (half area, black, flat bottomed, Greiner Bio-One International) at ambient temperature (set to 23.5 °C), total volume 100 µL. The assay employs a synthetic MCA-based peptide substrate that, upon cleavage by active ACE2, releases a fluorophore measurable by a fluorescence microplate reader (Ex/Em = 320/420 nm). Compounds to be tested were serially diluted with dilution buffer from a stock solution (5 mg/mL) in dimethyl sulfoxide (DMSO) to different concentrations.
# Diluted ACE2 enzyme solution was prepared by diluting ACE2 enzyme (20 µL, provided in the kit) with dilution buffer (198 µL, provided in the kit ) and was aliquoted and stored at -20 °C.
# Diluted ACE2 enzyme solution (2 µL) was added to assay buffer (48 µL ) to make ACE2 enzyme working solution. Inhibitor solution was prepared by adding the cont rol inhibitors (5 µL, 0.5 mM) to dilution buffer (50 µL) and was aliquoted and stored at -20 °C. The ACE2 substrate was aliquoted and stored at -20 °C. ACE2 substrate solution was prepared by diluting substrate (2 µL) […]
# Five controls were prepared: enzyme control (positive control, inhibition free reaction), inhibitor control (negative control to test inhibition), background control (to remove fluorescence from the background), test compound control (to test whether the test compounds react with the substrate) and vehicle control (to test the effect of solvent DMSO on ACE2 enzyme activity).
# For enzyme control, inhibitor control and vehicle control, and test compounds, ACE2 enzyme working solution (50 µL) was added. For background control and test compound control, assay buffer (50 µL) was added. Then, assay buffer (10 µL) was added to enzyme control and background control. DMSO solution in assay buffer (10 µL) was added to vehicle control. Inhibitor solution (10 µL) was added to inhibitor control. Test compound solution (10 µL) was added to the test compound control. For the test compound, compound solution (10 µL) with the different concentrations were added. An example of preparation can be found on Table S3.1. The mixture […]
# and substrate were incubated separately at room temperature for 15 minutes before substrate (40 µL) was added to each test and mixed evenly to start the reaction. Fluorescence was monitored over 61-minutes (excitation = 320 nm, emission = 420 nm) using a Tecan microplate reader (Infinite® 200 PRO NanoQuant Microplate Reader). Fluorescence spectra were measured using the fluorescence intensity mode (excitation = 320 nm).
# Table S4.1. Preparation of control and test compounds
# Test Component 1 Component 2 Component 3
# Vehicle control 50 µL enzyme1 10 µL DMSO (0.1 mM) 40 µL substrate2
# Background control 50 µL assay buffer 10 µL assay buffer 40 µL substrate […]
# [1] = Abcam ACE2 inhibitor screening kit, read-out: pIC50 exp (experimental pIC50) (converted)
# T1 sequence (Q9BYF1 18-805): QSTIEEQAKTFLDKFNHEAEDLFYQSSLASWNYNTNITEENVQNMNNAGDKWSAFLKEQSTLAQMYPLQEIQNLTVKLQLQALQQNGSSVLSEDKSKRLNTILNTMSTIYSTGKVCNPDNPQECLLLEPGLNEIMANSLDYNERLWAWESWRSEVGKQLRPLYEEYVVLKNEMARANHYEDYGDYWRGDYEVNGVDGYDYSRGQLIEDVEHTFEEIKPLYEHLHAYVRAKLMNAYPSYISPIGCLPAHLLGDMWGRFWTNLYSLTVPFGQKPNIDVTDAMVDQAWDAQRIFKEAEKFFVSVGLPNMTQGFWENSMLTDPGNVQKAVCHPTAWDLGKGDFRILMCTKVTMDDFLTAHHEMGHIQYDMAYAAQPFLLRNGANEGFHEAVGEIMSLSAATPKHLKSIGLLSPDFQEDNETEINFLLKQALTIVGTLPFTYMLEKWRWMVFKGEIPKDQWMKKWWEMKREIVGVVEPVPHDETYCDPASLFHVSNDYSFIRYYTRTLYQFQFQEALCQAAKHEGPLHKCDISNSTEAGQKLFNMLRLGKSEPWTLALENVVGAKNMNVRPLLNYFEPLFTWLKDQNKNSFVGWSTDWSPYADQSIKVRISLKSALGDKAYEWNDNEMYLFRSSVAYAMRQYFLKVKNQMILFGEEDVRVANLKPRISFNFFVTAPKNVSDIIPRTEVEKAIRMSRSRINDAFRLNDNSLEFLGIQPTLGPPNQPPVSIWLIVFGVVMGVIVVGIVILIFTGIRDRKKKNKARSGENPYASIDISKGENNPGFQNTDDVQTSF
SMILES,IC50 [1] [nM],pIC50 exp-MLN – pIC50 exp,IC50 [nM]
"CC(C)C[C@H](N[C@@H](Cc1cncn1Cc1ccc(F)cc1)C(=O)O)C(=O)O [(S,S)-1]",204,0.85,–
"CC(C)C[C@H](N[C@@H](Cc1cncn1Cc1cc(Cl)cc(Cl)c1)C(=O)O)C(=O)O [MLN-4760, (S,S)-2-(1-carboxy-2-(3-(3,5-dichlorobenzyl)-3H-imidazol-4-yl)-ethylamino)-4-methylpentanoic acid, reference compound]",–,0.00,28.8
"COc1cc(Cn2cncc2C[C@H](N[C@@H](CC(C)C)C(=O)O)C(=O)O)cc(OCCF)c1 [(S,S)-4]",–,0.27,53.7
"Cc1cc(F)cc(Cn2cncc2C[C@H](N[C@@H](CC(C)C)C(=O)O)C(=O)O)c1 [(S,S)-2]",–,0.36,66.1
"CC(C)C[C@H](N[C@@H](Cc1cncn1Cc1cc(F)cc(Cl)c1)C(=O)O)C(=O)O [(S,S)-3]",–,–0.07,24.5
"CC(C)C[C@@H](N[C@@H](Cc1cncn1Cc1ccc(F)cc1)C(=O)O)C(=O)O [(S,R)-1]",40700,3.15,–
